pIC50: −log10 of the molar value.
Legend:
Assay in all cases: Growth inhibitory activity of compounds on BaF3 cell lines stably transfected with kinase (MTS, 48 h)
Format in all cases: cell-based
[1] = biological target: T1, various mutants of kinase EGFR (BaF3 cell lines stably transfected with kinase) (Homo sapiens, UniProt P00533); conditions: BaF3 cells stably transfected with EGFR Δ19Del, read-out: IC50, growth inhibition, Δ19Del
T1 construct: other: BaF3 cells stably transfected with EGFR Δ19Del; MTS, 48 h; other: BaF3 cell line stably transfected with EGFR Δ19Del
Outline: (§1)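 OD at 490 nm after 1-4 h MTS/PES incubation gave growth inhibition relative to 0.1% DMSO negative and cell-free medium blank. Compounds: 8-point 1/3 dilution from 10 µM, 48 h, 37 °C. IC50 from inhibition curves; duplicates.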

[2] = biological target: T2, various mutants of kinase EGFR (BaF3 cell lines stably transfected with kinase) (Homo sapiens, UniProt P00533, C797S/L858R/T790M); conditions: BaF3 cells stably transfected with EGFR L858R/T790M/C797S, read-out: IC50, growth inhibition, L858R/T790M/C797S
T2 construct: expressed in transfected cells; host or cells: BaF3
Outline: as §1

[3] = biological target: T3, various mutants of kinase EGFR (BaF3 cell lines stably transfected with kinase) (Homo sapiens, UniProt P00533, L858R); conditions: BaF3 cells stably transfected with EGFR L858R, read-out: IC50, growth inhibition, L858R
T3 construct: expressed in transfected cells; host or cells: BaF3
Outline: as §1

[4] = biological target: T4, various mutants of kinase EGFR (BaF3 cell lines stably transfected with kinase) (Homo sapiens, UniProt P00533, L858R/T790M); conditions: BaF3 cells stably transfected with EGFR L858R/T790M, read-out: IC50, growth inhibition, L858R/T790M
T4 construct: expressed in transfected cells; host or cells: BaF3
Outline: as §1

[5] = biological target: T5, various mutants of kinase EGFR (BaF3 cell lines stably transfected with kinase) (Homo sapiens, UniProt P00533, T790M/C797S, form not given); conditions: BaF3 cells stably transfected with EGFR Δ19Del/T790M/C797S, read-out: IC50, growth inhibition, Δ19Del/T790M/C797S
T5 construct: other: BaF3 cells stably transfected with EGFR Δ19Del/T790M/C797S; MTS, 48; other: BaF3 cell line stably transfected with EGFR Δ19Del/T790M/C7
Outline: as §1

[6] = biological target: T6, various mutants of kinase EGFR (BaF3 cell lines stably transfected with kinase) (Homo sapiens, UniProt P00533, T790M, form not given); conditions: BaF3 cells stably transfected with EGFR Δ19Del/T790M, read-out: IC50, growth inhibition, Δ19Del/T790M
T6 construct: other: BaF3 cells stably transfected with EGFR Δ19Del/T790M; MTS, 48 h; other: BaF3 cell line stably transfected with EGFR Δ19Del/T790M; MTS, 48
Outline: as §1

T2 sequence (P00533 25-1210 T790M/C797S/L858R): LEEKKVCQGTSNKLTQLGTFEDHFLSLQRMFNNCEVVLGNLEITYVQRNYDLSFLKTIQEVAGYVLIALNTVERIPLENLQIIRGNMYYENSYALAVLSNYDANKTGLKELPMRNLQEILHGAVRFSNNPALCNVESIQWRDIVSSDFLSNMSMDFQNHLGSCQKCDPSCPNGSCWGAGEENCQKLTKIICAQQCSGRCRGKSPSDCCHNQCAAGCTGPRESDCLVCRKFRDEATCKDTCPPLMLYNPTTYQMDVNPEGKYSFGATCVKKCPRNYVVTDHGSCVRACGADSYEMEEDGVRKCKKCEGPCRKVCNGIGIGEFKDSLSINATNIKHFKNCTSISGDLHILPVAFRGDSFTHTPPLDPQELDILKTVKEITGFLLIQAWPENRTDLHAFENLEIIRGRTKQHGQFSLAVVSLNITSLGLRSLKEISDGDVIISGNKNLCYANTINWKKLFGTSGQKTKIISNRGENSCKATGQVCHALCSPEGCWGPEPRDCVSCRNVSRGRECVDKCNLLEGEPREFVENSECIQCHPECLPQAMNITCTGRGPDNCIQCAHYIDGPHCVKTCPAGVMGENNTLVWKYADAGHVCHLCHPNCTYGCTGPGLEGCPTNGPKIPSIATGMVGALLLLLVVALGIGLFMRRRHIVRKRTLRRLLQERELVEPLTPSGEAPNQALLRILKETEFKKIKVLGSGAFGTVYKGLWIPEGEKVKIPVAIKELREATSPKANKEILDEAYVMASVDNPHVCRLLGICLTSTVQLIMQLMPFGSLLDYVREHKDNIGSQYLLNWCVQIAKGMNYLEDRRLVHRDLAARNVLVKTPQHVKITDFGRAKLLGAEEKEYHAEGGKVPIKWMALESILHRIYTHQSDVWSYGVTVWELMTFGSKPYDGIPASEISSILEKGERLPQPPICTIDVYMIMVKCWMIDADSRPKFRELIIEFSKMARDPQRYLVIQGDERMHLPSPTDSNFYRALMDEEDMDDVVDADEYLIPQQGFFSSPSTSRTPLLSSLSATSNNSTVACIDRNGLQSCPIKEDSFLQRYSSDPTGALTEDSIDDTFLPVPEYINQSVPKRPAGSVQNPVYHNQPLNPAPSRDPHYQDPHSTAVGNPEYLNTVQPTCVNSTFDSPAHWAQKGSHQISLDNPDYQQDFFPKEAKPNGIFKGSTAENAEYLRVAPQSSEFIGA
T5 sequence (P00533 with tags, fused parts or gaps DEL746-750/T790M/C797S, form open): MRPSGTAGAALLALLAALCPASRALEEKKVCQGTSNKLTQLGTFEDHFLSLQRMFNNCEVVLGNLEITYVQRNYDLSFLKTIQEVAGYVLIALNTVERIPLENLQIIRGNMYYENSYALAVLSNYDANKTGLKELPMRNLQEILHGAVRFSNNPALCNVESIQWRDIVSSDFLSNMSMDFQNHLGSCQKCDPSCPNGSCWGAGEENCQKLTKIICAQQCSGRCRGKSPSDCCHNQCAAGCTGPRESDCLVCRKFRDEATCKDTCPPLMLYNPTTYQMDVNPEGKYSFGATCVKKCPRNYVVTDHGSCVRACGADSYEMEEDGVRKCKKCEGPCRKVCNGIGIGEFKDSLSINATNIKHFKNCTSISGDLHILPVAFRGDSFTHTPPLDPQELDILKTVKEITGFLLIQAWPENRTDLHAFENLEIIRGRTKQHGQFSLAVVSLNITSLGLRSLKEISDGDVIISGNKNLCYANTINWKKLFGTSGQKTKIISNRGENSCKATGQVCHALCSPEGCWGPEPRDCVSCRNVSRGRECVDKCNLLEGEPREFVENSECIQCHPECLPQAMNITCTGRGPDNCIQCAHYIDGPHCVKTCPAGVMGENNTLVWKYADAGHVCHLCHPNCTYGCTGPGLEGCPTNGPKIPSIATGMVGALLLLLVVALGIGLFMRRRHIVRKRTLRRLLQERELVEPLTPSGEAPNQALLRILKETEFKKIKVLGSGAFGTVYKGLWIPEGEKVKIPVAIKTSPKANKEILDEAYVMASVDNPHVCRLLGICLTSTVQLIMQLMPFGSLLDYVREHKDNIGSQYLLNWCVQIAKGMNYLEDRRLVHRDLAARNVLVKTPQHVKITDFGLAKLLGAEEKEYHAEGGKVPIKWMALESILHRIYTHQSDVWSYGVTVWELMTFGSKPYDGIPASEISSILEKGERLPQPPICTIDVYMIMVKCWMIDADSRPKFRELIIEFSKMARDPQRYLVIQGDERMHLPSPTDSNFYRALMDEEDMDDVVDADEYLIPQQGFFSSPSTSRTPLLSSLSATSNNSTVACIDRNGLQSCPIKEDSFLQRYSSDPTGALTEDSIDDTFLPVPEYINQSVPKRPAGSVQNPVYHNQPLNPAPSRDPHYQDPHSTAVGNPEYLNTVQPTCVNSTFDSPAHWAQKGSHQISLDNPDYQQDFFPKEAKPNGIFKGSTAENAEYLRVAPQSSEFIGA
T1 sequence (P00533 with tags, fused parts or gaps DEL746-750): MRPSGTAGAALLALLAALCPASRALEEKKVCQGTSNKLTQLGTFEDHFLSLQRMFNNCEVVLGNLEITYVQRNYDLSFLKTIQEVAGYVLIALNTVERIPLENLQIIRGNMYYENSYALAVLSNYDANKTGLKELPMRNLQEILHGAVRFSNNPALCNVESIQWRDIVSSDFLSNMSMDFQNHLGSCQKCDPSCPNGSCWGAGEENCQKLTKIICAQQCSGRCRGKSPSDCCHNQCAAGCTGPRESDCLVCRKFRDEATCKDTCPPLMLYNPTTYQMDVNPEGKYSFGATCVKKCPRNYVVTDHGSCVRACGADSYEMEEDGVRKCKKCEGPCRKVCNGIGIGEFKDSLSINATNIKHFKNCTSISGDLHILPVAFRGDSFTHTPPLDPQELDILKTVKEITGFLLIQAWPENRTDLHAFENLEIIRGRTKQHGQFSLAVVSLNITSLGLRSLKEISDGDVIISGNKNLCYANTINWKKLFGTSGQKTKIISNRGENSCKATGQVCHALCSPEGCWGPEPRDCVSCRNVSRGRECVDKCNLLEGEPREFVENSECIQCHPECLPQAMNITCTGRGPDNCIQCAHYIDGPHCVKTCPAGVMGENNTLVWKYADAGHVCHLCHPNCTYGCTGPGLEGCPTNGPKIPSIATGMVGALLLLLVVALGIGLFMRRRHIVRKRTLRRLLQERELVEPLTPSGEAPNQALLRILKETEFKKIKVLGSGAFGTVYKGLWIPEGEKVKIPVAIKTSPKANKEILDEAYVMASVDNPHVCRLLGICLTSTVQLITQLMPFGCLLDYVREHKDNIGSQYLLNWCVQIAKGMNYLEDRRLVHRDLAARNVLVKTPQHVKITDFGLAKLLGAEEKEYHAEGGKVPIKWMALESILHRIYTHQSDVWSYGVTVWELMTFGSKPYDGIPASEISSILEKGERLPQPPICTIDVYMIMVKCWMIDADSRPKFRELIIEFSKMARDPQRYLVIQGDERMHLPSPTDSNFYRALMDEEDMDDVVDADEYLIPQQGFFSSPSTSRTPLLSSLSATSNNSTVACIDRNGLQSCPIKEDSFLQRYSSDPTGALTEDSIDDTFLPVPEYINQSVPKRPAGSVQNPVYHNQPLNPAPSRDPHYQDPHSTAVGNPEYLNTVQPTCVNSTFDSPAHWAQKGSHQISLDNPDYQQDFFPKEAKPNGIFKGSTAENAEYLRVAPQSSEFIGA
T6 sequence (P00533 with tags, fused parts or gaps DEL746-750/T790M, form open): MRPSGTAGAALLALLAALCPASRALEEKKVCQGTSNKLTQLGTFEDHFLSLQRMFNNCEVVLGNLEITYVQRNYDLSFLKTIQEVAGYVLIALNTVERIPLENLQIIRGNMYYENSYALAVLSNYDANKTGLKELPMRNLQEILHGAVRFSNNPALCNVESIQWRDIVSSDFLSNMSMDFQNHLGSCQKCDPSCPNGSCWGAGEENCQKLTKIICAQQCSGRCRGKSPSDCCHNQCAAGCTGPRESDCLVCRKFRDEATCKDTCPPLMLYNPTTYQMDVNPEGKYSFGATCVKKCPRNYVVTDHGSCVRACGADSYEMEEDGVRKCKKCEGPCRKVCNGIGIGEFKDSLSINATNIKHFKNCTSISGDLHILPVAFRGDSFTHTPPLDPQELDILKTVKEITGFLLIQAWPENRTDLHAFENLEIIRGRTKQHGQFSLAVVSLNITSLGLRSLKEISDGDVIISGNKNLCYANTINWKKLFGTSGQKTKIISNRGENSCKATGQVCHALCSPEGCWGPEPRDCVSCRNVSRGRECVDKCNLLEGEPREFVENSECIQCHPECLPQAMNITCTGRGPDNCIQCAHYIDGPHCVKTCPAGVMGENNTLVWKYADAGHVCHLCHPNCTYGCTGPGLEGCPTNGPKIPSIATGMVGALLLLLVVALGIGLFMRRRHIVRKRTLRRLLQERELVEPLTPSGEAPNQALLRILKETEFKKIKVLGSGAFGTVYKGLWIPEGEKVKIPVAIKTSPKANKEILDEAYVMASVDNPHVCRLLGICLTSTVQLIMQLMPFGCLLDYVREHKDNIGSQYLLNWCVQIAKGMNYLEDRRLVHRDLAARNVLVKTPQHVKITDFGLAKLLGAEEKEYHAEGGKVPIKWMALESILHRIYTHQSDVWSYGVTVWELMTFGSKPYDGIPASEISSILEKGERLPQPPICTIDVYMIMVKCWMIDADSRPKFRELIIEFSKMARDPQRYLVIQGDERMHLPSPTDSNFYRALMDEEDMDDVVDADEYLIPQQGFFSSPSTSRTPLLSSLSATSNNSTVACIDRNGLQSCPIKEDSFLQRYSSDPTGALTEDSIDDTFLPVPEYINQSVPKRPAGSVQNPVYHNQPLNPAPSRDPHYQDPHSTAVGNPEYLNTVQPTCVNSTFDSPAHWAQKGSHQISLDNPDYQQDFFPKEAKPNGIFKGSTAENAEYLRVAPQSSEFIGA

pIC50 [1]	pIC50 [2]	pIC50 [3]	pIC50 [4]	pIC50 [5]	pIC50 [6]	Structure (SMILES)
≥ 7.30	≥ 7.30	≥ 7.30	≥ 7.30	≥ 7.30	≥ 7.30	CCc1cc(Nc2ncc(Cl)c(Nc3ccc4nccnc4c3N(C)S(=O)(=O)CC)n2)c(OC)cc1N1CCN(C)CC1 [Compound I-236]
6.30 to 7.30	6.30 to 7.30	6.30 to 7.30	6.30 to 7.30	≥ 7.30	6.30 to 7.30	COc1nc(N2CCC(N3CCN(C)CC3)CC2)ccc1Nc1ncc(Cl)c(Nc2ccc3nccnc3c2N(C2CC2)S(C)(=O)=O)n1 [Compound I-239]
≥ 7.30	6.30 to 7.30	≥ 7.30	≥ 7.30	≥ 7.30	≥ 7.30	CCc1cc(Nc2ncc(Cl)c(Nc3ccc4nccnc4c3N(C3CC3)S(C)(=O)=O)n2)c(OC)nc1N1CCC(N2CCN(C)CC2)CC1 [Compound I-241]
≥ 7.30	≥ 7.30	≥ 7.30	≥ 7.30	≥ 7.30	6.30 to 7.30	COc1cc(N2CCN(C)CC2)c(C)cc1Nc1ncc(Cl)c(Nc2ccc3nccnc3c2N(C2CC2)S(C)(=O)=O)n1 [Compound I-244]
≥ 7.30	≥ 7.30	≥ 7.30	≥ 7.30	≥ 7.30	≥ 7.30	COc1cc(N2CCC(N(C)C)C2)c(C)cc1Nc1ncc(Cl)c(Nc2ccc3nccnc3c2N(C2CC2)S(C)(=O)=O)n1 (stereo not drawn) [Compound I-246]
≥ 7.30	6.30 to 7.30	≥ 7.30	≥ 7.30	≥ 7.30	6.30 to 7.30	COc1cc(N2CCC(N3CCN(C)CC3)CC2)c(C)cc1Nc1ncc(F)c(Nc2ccc3nccnc3c2N(C)S(=O)(=O)C2CC2)n1 [Compound I-248]
≥ 7.30	6.30 to 7.30	≥ 7.30	≥ 7.30	≥ 7.30	6.30 to 7.30	CCc1cc(Nc2ncc(F)c(Nc3ccc4nccnc4c3N(C)S(=O)(=O)C3CC3)n2)c(OC)cc1N1CCC(N2CCN(C)CC2)CC1 [Compound I-249]
6.30 to 7.30	5.60 to 6.30	6.30 to 7.30	6.30 to 7.30	6.30 to 7.30	5.60 to 6.30	CCc1cc(Nc2ncc(F)c(Nc3ccc4nccnc4c3N(C)S(=O)(=O)C3CC3)n2)c(OC(F)(F)F)cc1N1CCC(N2CCN(C)CC2)CC1 [Compound I-250]
5.60 to 6.30	6.30 to 7.30	5.60 to 6.30	6.30 to 7.30	6.30 to 7.30	5.60 to 6.30	COc1cc(N2CCC(N3CCN(C)CC3)CC2)ccc1Nc1ncc(Br)c(Nc2ccc3nccnc3c2N(C)S(=O)(=O)C(F)(F)F)n1 [Compound I-256]
5.60 to 6.30	6.30 to 7.30	5.60 to 6.30	6.30 to 7.30	≥ 7.30	6.30 to 7.30	CCc1cc(Nc2ncc(Br)c(Nc3ccc4nccnc4c3N(C)S(=O)(=O)C(F)(F)F)n2)c(OC)nc1N1CCC(N2CCN(C)CC2)CC1 [Compound I-257]

Continued, compound first:

Structure (SMILES)	pIC50 [1]	pIC50 [2]	pIC50 [3]	pIC50 [4]	pIC50 [5]	pIC50 [6]
CCS(=O)(=O)N(C)c1c(Nc2nc(Nc3cc(CC4CC4)c(N4CCC(N5CCN(C)CC5)CC4)cc3OC)ncc2Cl)ccc2nccnc12 [Compound I-235]	6.30 to 7.30	6.30 to 7.30	6.30 to 7.30	≥ 7.30	≥ 7.30	≥ 7.30
COc1cc(N2CCC(N3CCN(C)CC3)CC2)ccc1Nc1ncc(Cl)c(Nc2ccc3nccnc3c2N(C)S(=O)(=O)C2CC2)n1 [Compound I-237]	6.30 to 7.30	6.30 to 7.30	6.30 to 7.30	6.30 to 7.30	6.30 to 7.30	6.30 to 7.30
COc1cc(N2CCC(N3CCN(C)CC3)CC2)c(CC2CC2)cc1Nc1ncc(Cl)c(Nc2ccc3nccnc3c2N(C)S(=O)(=O)C2CC2)n1 [Compound I-238]	6.30 to 7.30	6.30 to 7.30	6.30 to 7.30	6.30 to 7.30	≥ 7.30	6.30 to 7.30
COc1nc(N2CCC(N3CCN(C)CC3)CC2)c(C)cc1Nc1ncc(Cl)c(Nc2ccc3nccnc3c2N(C2CC2)S(C)(=O)=O)n1 [Compound I-240]	5.60 to 6.30	5.60 to 6.30	5.60 to 6.30	5.60 to 6.30	5.60 to 6.30	5.60 to 6.30
COc1cc(N2CCC(N3CCN(C)CC3)CC2)c(CC2CC2)cc1Nc1ncc(Cl)c(Nc2ccc3nccnc3c2N(C2CC2)S(C)(=O)=O)n1 [Compound I-242]	6.30 to 7.30	≥ 7.30	6.30 to 7.30	6.30 to 7.30	≥ 7.30	6.30 to 7.30
COc1cc(N2CCC(N(C)C)CC2)c(C)cc1Nc1ncc(Cl)c(Nc2ccc3nccnc3c2N(C2CC2)S(C)(=O)=O)n1 [Compound I-243]	≥ 7.30	6.30 to 7.30	≥ 7.30	≥ 7.30	6.30 to 7.30	≥ 7.30
CCc1cc(Nc2ncc(Cl)c(Nc3ccc4nccnc4c3N(C3CC3)S(C)(=O)=O)n2)c(OC)cc1N1CCN(C)CC1 [Compound I-245]	≥ 7.30	≥ 7.30	≥ 7.30	≥ 7.30	≥ 7.30	≥ 7.30
COc1cc(N2CCC(N3CCN(C)CC3)CC2)ccc1Nc1ncc(F)c(Nc2ccc3nccnc3c2N(C)S(=O)(=O)C2CC2)n1 [Compound I-247]	6.30 to 7.30	5.60 to 6.30	6.30 to 7.30	5.60 to 6.30	6.30 to 7.30	5.60 to 6.30
COc1cc(N2CCC(N3CCN(C)CC3)CC2)c(CC2CC2)cc1Nc1ncc(F)c(Nc2ccc3nccnc3c2N(C)S(=O)(=O)C2CC2)n1 [Compound I-251]	6.30 to 7.30	5.60 to 6.30	6.30 to 7.30	6.30 to 7.30	6.30 to 7.30	5.60 to 6.30
CCc1cc(Nc2ncc(F)c(Nc3ccc4nccnc4c3N(C)S(=O)(=O)C3CC3)n2)c(OC)cc1N1CCC(N(C)C)CC1 [Compound I-252]	≥ 7.30	6.30 to 7.30	≥ 7.30	≥ 7.30	≥ 7.30	6.30 to 7.30
CCc1cc(Nc2ncc(Cl)c(Nc3ccc4nccnc4c3N(C)S(=O)(=O)C(C)C)n2)c(OC)nc1N1CCC(N2CCN(C)CC2)CC1 [Compound I-253]	6.30 to 7.30	6.30 to 7.30	6.30 to 7.30	6.30 to 7.30	≥ 7.30	≥ 7.30
COc1cc(N2CCC(N3CCN(C)CC3)CC2)c(CC2CC2)cc1Nc1ncc(Cl)c(Nc2ccc3nccnc3c2N(C)S(=O)(=O)C(C)C)n1 [Compound I-254]	6.30 to 7.30	6.30 to 7.30	6.30 to 7.30	6.30 to 7.30	6.30 to 7.30	≥ 7.30
CCc1cc(Nc2ncc(Cl)c(Nc3ccc4nccnc4c3N(C)S(=O)(=O)C(C)C)n2)c(OC)cc1N1CCN(C)CC1 [Compound I-255]	6.30 to 7.30	6.30 to 7.30	6.30 to 7.30	6.30 to 7.30	≥ 7.30	≥ 7.30
C=Cc1cc(Nc2ncc(Br)c(Nc3ccc4nccnc4c3N(C)S(=O)(=O)C(F)(F)F)n2)c(OC(F)(F)F)cc1N1CCC(N2CCN(C)CC2)CC1 [Compound I-258]	5.60 to 6.30	6.30 to 7.30	5.60 to 6.30	6.30 to 7.30	≥ 7.30	6.30 to 7.30

— US20230310428A1, “EGFR INHIBITOR AND PREPARATION METHOD AND USE THEREOF” (HONGYUN BIOTECH CO., LTD., priority 2020, published 2023)
